Experimental data as given in ChEMBL document CHEMBL4118132, “Novel 5-methyl-2-phenylphenanthridium derivatives as FtsZ-targeting antibacterial agents from structural simplification of natural product sanguinarine” (2018).
In brackets after ≈: the same amount, converted by molar mass. Activity calls are given as the source filed them. The calls are words filed in the database; no cut-off is given here.

What was measured:
[1] = system: Staphylococcus aureus; assay: Antibacterial activity against penicillin-susceptible Staphylococcus aureus ATCC 25923 after 24 hrs by broth microdilution method; format: functional; details: ATCC 25923, 24 h
[2] = system: Streptococcus pyogenes; assay: Antibacterial activity against penicillin-susceptible Streptococcus pyogenes after 24 hrs by broth microdilution method; format: functional
[3] = system: Streptococcus pyogenes; assay: Antibacterial activity against penicillin-resistant Streptococcus pyogenes after 24 hrs by broth microdilution method; format: functional
[4] = system: Bacillus subtilis; assay: Antibacterial activity against penicillin-susceptible Bacillus subtilis ATCC 9372 after 24 hrs by broth microdilution method; format: functional; details: ATCC 9372, 24 h
[5] = system: Bacillus pumilus; assay: Antibacterial activity against penicillin-susceptible Bacillus pumilus ATCC 63202 after 24 hrs by broth microdilution method; format: functional; details: ATCC 63202, 24 h
[6] = molecular target: T1, Cell division protein FtsZ (Bacillus subtilis) (UniProt A5Z1V5); assay: Inhibition of penicillin-susceptible Bacillus subtilis ATCC 9372 N-terminal His6-tagged FtsZ expressed in Escherichia coli BL21 (DE3) cells at 10 ug/ml by fluorescence spectrophotometer-based light scattering assay
T1 sequence (whole entry): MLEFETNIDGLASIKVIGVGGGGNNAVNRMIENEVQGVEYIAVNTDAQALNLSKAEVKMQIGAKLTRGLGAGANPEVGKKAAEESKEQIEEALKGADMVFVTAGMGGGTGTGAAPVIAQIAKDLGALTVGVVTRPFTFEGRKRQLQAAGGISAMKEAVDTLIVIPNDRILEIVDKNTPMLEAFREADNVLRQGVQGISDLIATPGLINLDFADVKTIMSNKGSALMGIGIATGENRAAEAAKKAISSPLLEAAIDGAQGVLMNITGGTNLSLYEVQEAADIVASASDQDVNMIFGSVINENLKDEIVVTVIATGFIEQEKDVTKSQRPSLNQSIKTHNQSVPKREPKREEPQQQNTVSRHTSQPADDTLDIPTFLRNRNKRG

[7] = system: Staphylococcus aureus; assay: Antibacterial activity against methicillin-resistant Staphylococcus aureus ATCC 43300 after 24 hrs by broth microdilution method; format: functional; details: ATCC 43300, 24 h
[8] = system: Staphylococcus aureus; assay: Antibacterial activity against penicillin-resistant Staphylococcus aureus clinical isolate after 24 hrs by broth microdilution method; format: functional
[9] = system: Staphylococcus epidermidis; assay: Antibacterial activity against penicillin-resistant Staphylococcus epidermidis clinical isolate after 24 hrs by broth microdilution method; format: functional
[10] = system: Staphylococcus aureus; assay: Potency index, ratio of ciprofloxacin MIC to test compound MIC for penicillin-resistant Staphylococcus aureus clinical isolate; format: functional
[11] = system: Escherichia coli; assay: Antibacterial activity against penicillin-susceptible Escherichia coli ATCC 25922 after 24 hrs by broth microdilution method; format: functional; details: ATCC 25922, 24 h
[12] = system: Pseudomonas aeruginosa; assay: Antibacterial activity against penicillin-susceptible Pseudomonas aeruginosa ATCC 27853 after 24 hrs by broth microdilution method; format: functional; details: ATCC 27853, 24 h
[13] = system: Staphylococcus aureus; assay: Potency index, ratio of ciprofloxacin MIC to test compound MIC for penicillin-susceptible Staphylococcus aureus ATCC 25923; format: functional
[14] = system: Staphylococcus aureus; assay: Potency index, ratio of oxacillin sodium MIC to test compound MIC for penicillin-susceptible Staphylococcus aureus ATCC 25923; format: functional
[15] = system: Staphylococcus aureus; assay: Potency index, ratio of ciprofloxacin MIC to test compound MIC for methicillin-resistant Staphylococcus aureus ATCC 43300; format: functional
[16] = system: Staphylococcus aureus; assay: Potency index, ratio of oxacillin sodium MIC to test compound MIC for methicillin-resistant Staphylococcus aureus ATCC 43300; format: functional
[17] = system: Staphylococcus aureus; assay: Potency index, ratio of oxacillin sodium MIC to test compound MIC for penicillin-resistant Staphylococcus aureus clinical isolate; format: functional
[18] = system: Staphylococcus epidermidis; assay: Potency index, ratio of ciprofloxacin MIC to test compound MIC for penicillin-resistant Staphylococcus epidermidis clinical isolate; format: functional
[19] = system: Staphylococcus epidermidis; assay: Potency index, ratio of oxacillin sodium MIC to test compound MIC for penicillin-resistant Staphylococcus epidermidis clinical isolate; format: functional
[20] = system: Streptococcus pyogenes; assay: Potency index, ratio of ciprofloxacin MIC to test compound MIC for penicillin-susceptible Streptococcus pyogenes; format: functional
[21] = system: Streptococcus pyogenes; assay: Potency index, ratio of oxacillin sodium MIC to test compound MIC for penicillin-susceptible Streptococcus pyogenes; format: functional
[22] = system: Streptococcus pyogenes; assay: Potency index, ratio of ciprofloxacin MIC to test compound MIC for penicillin-resistant Streptococcus pyogenes; format: functional
[23] = system: Streptococcus pyogenes; assay: Potency index, ratio of oxacillin sodium MIC to test compound MIC for penicillin-resistant Streptococcus pyogenes; format: functional
[24] = system: Staphylococcus aureus; assay: Bactericidal activity against penicillin-susceptible Staphylococcus aureus ATCC 25923 after 24 hrs by flat colony counting method; format: functional; details: ATCC 25923, 24 h
[25] = molecular target: T1, Cell division protein FtsZ (Bacillus subtilis); assay: Inhibition of penicillin-susceptible Bacillus subtilis ATCC 9372 N-terminal His6-tagged FtsZ expressed in Escherichia coli BL21 (DE3) cells by fluorescence spectrophotometer-based light scattering assay
[26] = molecular target: T1, Cell division protein FtsZ (Bacillus subtilis); assay: Inhibition of FtsZ in penicillin-susceptible Bacillus subtilis ATCC 9372 assessed as increase in length of bacteria at 8 ug/ml after 5 hrs by phase-contrast light microscopic method
[27] = molecular target: T2, Cell division protein FtsZ (Staphylococcus aureus) (UniProt P0A031); assay: Inhibition of FtsZ in penicillin-susceptible Staphylococcus aureus ATCC 25923 assessed as increase in length of bacteria at 4 ug/ml after 5 hrs by phase-contrast light microscopic method
T2 sequence (whole entry): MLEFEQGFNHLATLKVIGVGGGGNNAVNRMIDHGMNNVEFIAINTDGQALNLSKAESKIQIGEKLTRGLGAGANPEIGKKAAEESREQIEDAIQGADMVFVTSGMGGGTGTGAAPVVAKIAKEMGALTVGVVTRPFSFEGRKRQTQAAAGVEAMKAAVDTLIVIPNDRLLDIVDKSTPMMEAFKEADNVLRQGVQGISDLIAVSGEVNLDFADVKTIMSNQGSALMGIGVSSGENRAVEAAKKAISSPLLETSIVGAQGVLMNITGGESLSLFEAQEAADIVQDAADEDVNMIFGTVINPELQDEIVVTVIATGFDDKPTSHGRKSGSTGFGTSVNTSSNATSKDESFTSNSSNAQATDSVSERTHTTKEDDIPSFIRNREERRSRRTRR

| SMILES | MIC [1] [µg/mL] | MIC [2] [µg/mL] | MIC [3] [µg/mL] | MIC [4] [µg/mL] | MIC [5] [µg/mL] | MIC [7] [µg/mL] | MIC [8] [µg/mL] | MIC [9] [µg/mL] | Ratio [10] | MIC [11] [µg/mL] | MIC [12] [µg/mL] | Ratio [13] | Ratio [14] | Ratio [15] | Ratio [16] | Ratio [17] | MBC [24] [µg/mL] | other results |
| --- | --- | --- | --- | --- | --- | --- | --- | --- | --- | --- | --- | --- | --- | --- | --- | --- | --- | --- |
| O=C(O)c1cn(C2CC2)c2cc(N3CCNCC3)c(F)cc2c1=O [CIPROFLOXACIN] | 8 (≈ 24.1 µM) | 8 (≈ 24.1 µM) | > 64 | 2 (≈ 6.04 µM) | 8 (≈ 24.1 µM) |  |  |  |  |  |  |  |  |  |  |  |  | inhibition [6]: Active |
| Cc1cc(-c2ccc(-c3ccccc3)cc2)cc2c3ccccc3c[n+](C)c12.[Cl-] | 0.06 | 1 | 2 | 0.125 | 0.125 | 0.5 | 0.25 | 0.125 | 64 | > 64 | > 64 | 133 | 67 | 4 - 164 | 16 - 256 | 256 | 64 | Ratio [18]: 512; Ratio [19]: 512; Ratio [20]: 8; Ratio [21]: 1; Ratio [22]: 32; Ratio [23]: 32; inhibition [25]: Dose-dependent effect |
| C[n+]1cc2c3c(ccc2c2ccc4cc5c(cc4c21)OCO5)OCO3.[Cl-] [SANGUINARIUM CHLORIDE] | 8 | 4 | 4 | 4 | 4 | 8 | 4 | 8 |  | > 64 | > 64 |  |  |  |  |  |  | inhibition [26]: Active; inhibition [27]: Active |
| Cc1cc(-c2ccc(OC(F)(F)F)cc2)cc2c3ccccc3c[n+](C)c12.[Cl-] | 0.06 | 2 | 4 | 0.125 | 0.125 | 0.25 | 1 | 0.25 | 4 - 64 | > 64 | > 64 | 133 | 67 | 64 | 256 | 16 - 256 | 16 |  |
